Measured values as given in US9200020B2, “6-oxopurine phosphoribosyltransferase inhibitors” (THE UNIVERSITY OF QUEENSLAND, priority 2012, dated 2015).
Like-named read-outs stand apart in the source and are kept apart here.

What was measured:
[1] = molecular target: E. coli XGPRT (Escherichia coli (strain K12), UniProt P0A9M5); test: Ki values with E. coli XGPRT; conditions: read-out: Ki (μM) XGPRT
[2] = tested on: P. falciparum strain D6; test: [3H]-hypoxanthine growth inhibition assay, P. falciparum D6; conditions: Plasmodium falciparum; for IC50: D6, read-out: D6 IC50; for IC90: D6, read-out: D6 IC90
[3] = tested on: P. falciparum strain W2; test: [3H]-hypoxanthine growth inhibition assay, P. falciparum W2; conditions: Plasmodium falciparum; for IC50: W2, read-out: W2 IC50; for IC90: W2, read-out: W2 IC90
[4] = molecular target: PvHGPRT (Plasmodium vivax, UniProt A5K7E9); test: biochemical; conditions: for Ki ratio (proto:phosphonatoethyl): PvHGPRT, decrease in Ki when N-H is replaced by phosphonoethyl
PvHGPRT, sequence (A5K7E9 1-233): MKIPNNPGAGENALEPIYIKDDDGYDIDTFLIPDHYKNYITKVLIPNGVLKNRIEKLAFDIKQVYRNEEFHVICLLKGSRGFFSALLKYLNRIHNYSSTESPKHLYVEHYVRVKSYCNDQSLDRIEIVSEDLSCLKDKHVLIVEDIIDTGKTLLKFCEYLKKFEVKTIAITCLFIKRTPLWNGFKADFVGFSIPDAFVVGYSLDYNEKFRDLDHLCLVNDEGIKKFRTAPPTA

[5] = molecular target: PfHGXPRT (Plasmodium falciparum (isolate FCR-3 / Gambia), UniProt P20035); test: biochemical; assay type: biochemical
[6] = molecular target: human HGPRT (Homo sapiens (Human), UniProt P00492); test: Ki determination, spectrophotometric assay, human HGPRT; assay type: biochemical; conditions: Ki(app), 25° C., pH 7.4, guanine 60 μM
human HGPRT, sequence (P00492 whole entry): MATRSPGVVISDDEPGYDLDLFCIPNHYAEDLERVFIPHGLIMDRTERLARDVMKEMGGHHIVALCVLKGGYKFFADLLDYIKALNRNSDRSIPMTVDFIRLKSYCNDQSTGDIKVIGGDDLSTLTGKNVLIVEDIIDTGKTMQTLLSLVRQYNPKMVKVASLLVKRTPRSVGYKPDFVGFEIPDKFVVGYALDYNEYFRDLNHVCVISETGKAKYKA

[7] = tested on: M. tuberculosis H37Ra (ATCC 25177); test: Resazurin reduction microplate assay, M. tuberculosis; conditions: five days at 37° C., resazurin fluorescence
[8] = Ki(app), 25° C., pH 7.4, guanine 60 μM, read-out: Ki Pv
[9] = Ki(app), 25° C., pH 7.4, guanine 60 μM, read-out: Ki Pf

For `Nc1nc2c(ncn2CCN(CCOCP(=O)(O)O)CCP(=O)(O)O)c(=O)[nH]1` [Compound 1], the Ki [1] was 0.4 µM.
With `Nc1nc2c(ncn2CCN(CCP(=O)(O)O)CP(=O)(O)O)c(=O)[nH]1` [Compound 2] the Ki [1] was 27 µM.
`N#CCCCN(CCn1cnc2c(=O)[nH]c(N)nc21)CCP(=O)(O)O` [Compound 4] showed an IC50 [2] of 8.6 ± 1.5 µM, an IC90 [2] of 24.5 ± 3.5 µM and an IC50 [3] of 5.7 ± 3.9 µM. For the same compound, the IC90 [3] was 32.5 ± 3.5 µM.
For `CCOC(=O)[C@H](Cc1ccccc1)NP(=O)(CCN(CCCC#N)CCn1cnc2c(=O)[nH]cnc21)N[C@@H](Cc1ccccc1)C(=O)OCC` [Compound 6], the IC50 [2] was 4.2 ± 1.4 µM, the IC90 [2] was 10.6 ± 1.8 µM and the IC50 [3] was 5.5 ± 1.6 µM. For the same compound, the IC90 [3] was 16.1 ± 0.1 µM.
`COC(=O)CCN(CCn1cnc2c(=O)[nH]c(N)nc21)CCP(=O)(O)O` [Compound 8] was tested, and the IC50 [2] was 3.5 ± 1 µM, the IC90 [2] was 8.6 ± 1.4 µM and the IC50 [3] was 2.9 ± 1.1 µM. It also gave an IC90 [3] of 15.9 ± 4.5 µM.
Work on `CCOC(=O)[C@H](Cc1ccccc1)NP(=O)(CCN(CCC(=O)OC)CCn1cnc2c(=O)[nH]c(N)nc21)N[C@@H](Cc1ccccc1)C(=O)OCC` [Compound 10] yielded an IC50 [2] of 11.8 ± 1.6 µM, an IC90 [2] of 30 ± 2.9 µM and an IC50 [3] of 5.6 ± 1.8 µM. The IC90 [3] was 37.5 ± 3.5 µM.
In the case of `N#CCCN(CCn1cnc2c(=O)[nH]c(N)nc21)CCP(=O)(O)O` [Compound 11], the IC50 [2] is reported as ~145 µM.
`N#CCCN(CCn1cnc2c(=O)[nH]cnc21)CCP(=O)(O)O` [Compound 12] showed an IC50 [2] of 6.4 ± 0.9 µM, an IC90 [2] of 10.2 ± 1.6 µM and an IC50 [3] of 10.4 ± 2 µM. It also gave an IC90 [3] of 21.2 ± 1 µM.
For `CCCOC(=O)[C@H](Cc1ccccc1)NP(=O)(CCN(CCC#N)CCn1cnc2c(=O)[nH]c(N)nc21)N[C@@H](Cc1ccccc1)C(=O)OCCC` [Compound 13], the IC50 [2] was 75 µM and the IC90 [2] was 215 µM.
In the case of `CCCOC(=O)[C@H](Cc1ccccc1)NP(=O)(CCN(CCC#N)CCn1cnc2c(=O)[nH]cnc21)N[C@@H](Cc1ccccc1)C(=O)OCCC` [Compound 14], the IC50 [2] is reported as 12.3 ± 1.6 µM, the IC90 [2] is reported as 18.7 ± 1.7 µM and the IC50 [3] is reported as 19.3 ± 7.5 µM. It also gave an IC90 [3] of 48 ± 13.6 µM.
With `COC(=O)CCCN(CCn1cnc2c(=O)[nH]c(N)nc21)CCP(=O)(O)O` [Example 3, 9-[(N-(4-Methoxy-4-oxobutyl)-N-(2-phosphonoethyl))-2-aminoethyl]guanine] the Ki ([4]; Ki Pv) was ≥ 200 µM.
For `Nc1nc2c(ncn2CCN(CCP(=O)(O)O)CCP(=O)(O)O)c(=O)[nH]1` [Example 11, 9-[(N,N-(Bis-2-phosphonoethyl))-2-aminoethyl]guanine], the “Ki ratio (proto:phosphonatoethyl)” value [4] was 12-fold.
Compound `Nc1nc2c(ncn2CCNCCP(=O)(O)O)c(=O)[nH]1` [Example 12, 9-[(N-(2-Phosphonoethyl))-2-aminoethyl]guanine] has a Ki [4, 8] of 11 ± 0.6 µM, a Ki [5, 9] of 16 ± 1 µM and a Ki [6] of 3 ± 0.6 µM.
With `CCOC(=O)CN(CCn1cnc2c(=O)[nH]cnc21)CCP(=O)(O)O` [Example 15, 9-[(N-(2-Ethoxy-2-oxoethyl)-N-(2-phosphonoethyl))-2-aminoethyl]hypoxanthine] the Ki [4, 8] was 11 ± 1 µM, the Ki [5, 9] was 1.9 ± 0.4 µM and the Ki [6] was 2.6 ± 0.5 µM.
In the case of `COC(=O)CCN(CCn1cnc2c(=O)[nH]cnc21)CCP(=O)(O)O` [Example 16, 9-[(N-(3-Methoxy-3-oxopropyl)-N-(2-phosphonoethyl))-2-aminoethyl]hypoxanthine], the Ki [4, 8] is reported as 21 ± 2 µM, the Ki [5, 9] is reported as 0.1 ± 0.03 µM and the Ki [6] is reported as ≥ 200 µM.
With `COC(=O)CCCN(CCn1cnc2c(=O)[nH]cnc21)CCP(=O)(O)O` [Example 17, 9-[(N-(4-Methoxy-4-oxobutyl)-N-(2-phosphonoethyl))-2-aminoethyl] hypoxanthine] the Ki [4, 8] was ≥ 250 µM, the Ki [5, 9] was ≥ 220 µM and the Ki [6] was 22 ± 3 µM.
`N#CCN(CCn1cnc2c(=O)[nH]cnc21)CCP(=O)(O)O` [Example 18, 9-[(N-(2-Cyanomethyl)-N-(2-phosphonoethyl))-2-aminoethyl]hypoxanthine] was tested, and the Ki [4, 8] was 47 ± 5 µM, the Ki [5, 9] was ≥ 250 µM and the Ki [6] was 35 µM.
`N#CCCN(CCn1cnc2c(=O)[nH]cnc21)CCP(=O)(O)O` [Example 19, 9-[(N-(2-Cyanoethyl)-N-(2-phosphonoethyl))-2-aminoethyl]hypoxanthine] was tested, and the Ki [4, 8] was 0.7 ± 0.06 µM, the Ki [5, 9] was 0.2 ± 0.05 µM and the Ki [6] was 2.4 ± 0.2 µM.
With `CC(C#N)CN(CCn1cnc2c(=O)[nH]cnc21)CCP(=O)(O)O` (stereo not shown) [Example 20, 9-[(N-(2-Cyanopropyl)-N-(2-phosphonoethyl))-2-aminoethyl]hypoxanthine] the Ki [4, 8] was ≥ 230 µM, the Ki [5, 9] was 6 ± 0.06 µM and the Ki [6] was 29 ± 2 µM.
Compound `O=C(O)CN(CCn1cnc2c(=O)[nH]cnc21)CCP(=O)(O)O` [Example 21, 9-[(N-(Carboxymethyl)-N-(2-phosphonoethyl))-2-aminoethyl]hypoxanthine] has a Ki [5] of 0.6 ± 0.06 µM.
For `O=C(O)CCN(CCn1cnc2c(=O)[nH]cnc21)CCP(=O)(O)O` [Example 22, 9-[(N-(2-Carboxyethyl)-N-(2-phosphonoethyl))-2-aminoethyl]hypoxanthine], the Ki [4, 8] was 41 ± 5 µM, the Ki [5, 9] was 0.4 ± 0.03 µM and the Ki [6] was ≥ 240 µM.
For `O=C(O)CCCN(CCn1cnc2c(=O)[nH]cnc21)CCP(=O)(O)O` [Example 23, 9-[(N-(Carboxypropyl)-N-(2-phosphonoethyl))-2-aminoethyl]hypoxanthine], the Ki [5] was ≥ 210 µM.
Work on `O=c1[nH]cnc2c1ncn2CCN(CCO)CCP(=O)(O)O` [Example 24, 9-[(N-(2-Hydroxyethyl)-N-(2-phosphonoethyl))-2-aminoethyl]hypoxanthine] yielded a Ki [4, 8] of 21 ± 3 µM, a Ki [5, 9] of 2.6 ± 0.4 µM and a Ki [6] of 5.5 ± 0.4 µM.
For `O=c1[nH]cnc2c1ncn2CCN(CCP(=O)(O)O)CCP(=O)(O)O` [Example 25, 9-[(N,N-(Bis-2-phosphonoethyl))-2-aminoethyl]hypoxanthine], the “Ki ratio (proto:phosphonatoethyl)” value [4] was >20-fold and the Ki [5] was 0.4 ± 0.1 µM.
In the case of `O=c1[nH]cnc2c1ncn2CCNCCP(=O)(O)O` [Example 26, 9-[(N-(2-Phosphonoethyl))-2-aminoethyl]hypoxanthine], the Ki [4, 8] is reported as ≥ 250 µM, the Ki [5] is reported as ≥ 200 µM and the Ki [6] is reported as 40 ± 2 µM.
Work on `Nc1nc2c(ncn2CCOCCP(=O)(O)O)c(=O)[nH]1` [PEEG, 2-(Phosphonoethoxy)ethyl guanine, reference compound] yielded a Ki [5, 9] of 0.1 ± 0.02 µM and a Ki [6] of 1 ± 0.5 µM.
For `O=c1[nH]cnc2c1ncn2CCOCCP(=O)(O)O` [PEEHx, 2-(phosphonoethoxy)ethyl hypoxanthine, reference compound], the Ki [5, 9] was 0.3 ± 0.04 µM and the Ki [6] was 3.6 ± 0.2 µM.
With `CCOC(=O)[C@H](Cc1ccccc1)NP(=O)(CCN(CCCC#N)CCn1cnc2c(=O)[nH]cnc21)N[C@@H](Cc1ccccc1)C(=O)OCC` [drawing 83] the IC50 [7] was 60 µM.
